Assay results as given in patent US11040954B1, “CXCR3 receptor agonists” (RECEPTOS LLC, priority 2016, dated 2021).

Biological target: T1, CXCR3 (Homo sapiens, UniProt P49682)
T1 construct: host or cells: CHO-K1 (cAMP Hunter CHOK1 CXCR3 Gi cell line)
T1 sequence (P49682 1-368): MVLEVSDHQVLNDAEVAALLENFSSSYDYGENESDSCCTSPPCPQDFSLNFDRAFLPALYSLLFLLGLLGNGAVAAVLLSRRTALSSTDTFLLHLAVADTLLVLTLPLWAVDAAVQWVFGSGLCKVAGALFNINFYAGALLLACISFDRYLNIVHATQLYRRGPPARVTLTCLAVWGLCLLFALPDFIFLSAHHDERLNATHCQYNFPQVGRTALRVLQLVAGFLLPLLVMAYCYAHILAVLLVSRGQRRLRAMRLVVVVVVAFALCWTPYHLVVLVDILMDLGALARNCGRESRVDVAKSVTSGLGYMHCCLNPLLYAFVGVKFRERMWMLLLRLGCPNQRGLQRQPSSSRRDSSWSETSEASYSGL
Assay: CXCR3 cAMP agonist assay (cAMP Hunter CHOK1 CXCR3 Gi cell line, forskolin-stimulated, HitHunter cAMP detection)
Type: cell-based
Conditions: cAMP Hunter CHOK1 CXCR3 Gi cells, 20 μM forskolin, 30 minutes; read-out: Activity (CXCR3 cAMP agonist assay compound EC50)
Method: The cAMP Hunter™ CHOK1 CXCR3 Gi cell line was purchased from DiscoveRx. Cells were seeded into a 96-well white assay plate at 50,000 cells/well/94 μl assay buffer (Hank's Buffered Saline Solution, 10 mM HEPES, 0.1% fatty acid-free BSA, pH 7.4) and immediately assayed in suspension. Forskolin was added to 20 μM (5 μl of 400 μM stock) simultaneously with a 12-point dose response curve of compound at 0-10 μM (1 μl of 100× stock in 100% DMSO), and cells were incubated for 30 minutes. A cAMP standard curve is run as an assay control. A CXCL11 dose response was included to determine maximum efficacy. Direct detection of cAMP was carried out using the DiscoveRx HitHunter cAMP kit according to manufacturer's instructions, and luminescence was read using a SpectraMax M5 plate reader.

SMILES	EC50 [nM]
NCC[C@H](NC(=O)[C@@H]1Cc2ccccc2CN1C(=O)CCC(=O)N1CCCCC12CCC2)C(=O)Nc1ccc(Cl)c(Cl)c1F [Compound 15-7]	< 50
Cc1c(Cl)ccc(NC(=O)[C@H](CCN)NC(=O)[C@@H]2Cc3ccccc3CN2C(=O)CCC(=O)N2CCCC(C)(C)C2)c1Cl [Compound 15-50]	< 50
Cc1cc(NC(=O)[C@H](CCN)NC(=O)[C@@H]2Cc3ccccc3CN2C(=O)CCC(=O)N2CCCCC2)ccc1Cl [Compound 10-1, (S)—N—((S)-4-amino-1-((4-chloro-3-methylphenyl)amino)-1-oxobutan-2-yl)-2-(4-oxo-4-(piperidin-1-yl)butanoyl)-1,2,3,4-tetrahydroisoquinoline-3-carboxamide]	< 50
NCCCC[C@H](NC(=O)[C@@H]1Cc2ccccc2CN1C(=O)CCC(=O)c1ccccc1)C(=O)Nc1ccccc1F [Compound 1-15]	250 to 500
CCN1CCN(C(=O)CCC(=O)N2Cc3ccccc3C[C@H]2C(=O)N[C@@H](CCN)C(=O)Nc2ccc(Cl)c(C)c2)CC1 [Compound 12-99]	50 to 250
Cc1cc(NC(=O)[C@H](CCN)NC(=O)[C@@H]2Cc3ccccc3CN2C(=O)CCC(=O)N2CCC(C(C)C)CC2)ccc1Cl [Compound 12-60]	< 50
Cc1cc(NC(=O)[C@H](CCN)NC(=O)[C@@H]2Cc3ccccc3CN2C(=O)CCC(=O)NCCOC(C)C)ccc1Cl [Compound 12-89]	> 500
NCC[C@H](NC(=O)[C@@H]1Cc2ccccc2CN1C(=O)CCC(=O)c1ccccc1)C(=O)Nc1cc2c(cc1F)CCC2 [Compound 2-78]	< 50
Cc1cc(NC(=O)[C@H](CCC2CCN(C(=O)OC(C)(C)C)CC2)NC(=O)[C@@H]2Cc3ccccc3CN2C(=O)CCC(=O)c2ccccc2)ccc1Cl [Compound 17-2]	250 to 500
NCC[C@H](NC(=O)[C@@H]1Cc2ccccc2CN1C(=O)CCC(=O)c1ccccc1)C(=O)Nc1cc(Cl)c(Cl)cc1O (racemic) [Compound 4-13]	50 to 250
NCC[C@H](NC(=O)[C@@H]1Cc2ccc(O)cc2CN1C(=O)CCC(=O)c1ccccc1)C(=O)Nc1ccc(Cl)c(Cl)c1F [Compound 4-20]	< 50
C[C@@H]1CN(C(=O)CCC(=O)N2Cc3ccccc3C[C@H]2C(=O)N[C@@H](CCN)C(=O)Nc2ccc(Cl)c(Cl)c2F)CCN1C [Compound 15-64]	50 to 250
NCC[C@H](NC(=O)[C@@H]1Cc2ccccc2CN1C(=O)CCC(=O)c1ccccc1)C(=O)Nc1cccc(Cl)c1Cl [Compound 14-8]	< 50
Cc1cc(NC(=O)[C@H](CCCCN)NC(=O)[C@@H]2Cc3ccccc3CN2C(=O)CCC(=O)c2ccccc2)cnc1C [Compound 1-34]	< 50
NCCCC[C@H](NC(=O)[C@@H]1Cc2ccccc2CN1C(=O)CCC(=O)c1ccccc1)C(=O)Nc1ccc(Cl)cc1F [Compound 1-23]	50 to 250
Cc1cc(NC(=O)[C@H](CCN)NC(=O)[C@@H]2Cc3ccccc3CN2C(=O)CCC(=O)NCC(C)(C)C)ccc1Cl [Compound 12-91]	< 50
NCC[C@H](NC(=O)[C@@H]1Cc2ccccc2CN1C(=O)CCC(=O)N1CCN2CCC[C@@H]2C1)C(=O)Nc1ccc(Cl)c(Cl)c1F [Compound 15-49]	< 50
Cc1cc(NC(=O)C2(NC(=O)[C@@H]3Cc4ccccc4CN3C(=O)CCC(=O)c3ccccc3)CCN(CCO)CC2)ccc1Cl [Compound 20-1, (S)—N-(4-((4-chloro-3-methylphenyl)carbamoyl)-1-(2-hydroxyethyl)piperidin-4-yl)-2-(4-oxo-4-phenylbutanoyl)-1,2,3,4-tetrahydroisoquinoline-3-carboxamide]	50 to 250
Cc1cc(NC(=O)[C@H](CCN)NC(=O)[C@@H]2Cc3ccccc3CN2C(=O)CCC(=O)N2CCN(C)[C@H](C)C2)ccc1Cl [Compound 12-35]	< 50
Cc1cc(NC(=O)[C@H](CCN)NC(=O)[C@@H]2Cc3ccccc3CN2C(=O)CCC(=O)N2CC(C(C)(C)C)C2)ccc1Cl [Compound 12-40]	< 50
O=C(CCC(=O)N1Cc2ccccc2C[C@H]1C(=O)NC1(C(=O)Nc2cccc(Cl)c2Cl)CCNCC1)c1ccccc1 [Compound 11-5]	> 500
Cc1cc(NC(=O)[C@H](CCN)NC(=O)[C@@H]2Cc3ccccc3CN2C(=O)CCC(=O)c2ccccc2)cc(Br)c1Cl [Compound 2-40]	< 50
NCC[C@H](NC(=O)[C@@H]1Cc2ccccc2CN1C(=O)CCC(=O)c1ccccc1)C(=O)Nc1c(Cl)cccc1Cl [Compound 14-7]	> 500
CC(C)NCC[C@H](NC(=O)[C@@H]1Cc2ccccc2CN1C(=O)CCC(=O)c1ccccc1)C(=O)Nc1ccc(Cl)c(Cl)c1F [Compound 8-7]	< 50

SMILES	EC50 [nM]
CN(C)CC1CCCCN1C(=O)CCC(=O)N1Cc2ccccc2C[C@H]1C(=O)N[C@@H](CCN)C(=O)Nc1ccc(Cl)c(Cl)c1F (stereo partly drawn) [Compound 15-17]	> 500
Cc1cc(NC(=O)[C@H](CCN)NC(=O)[C@@H]2Cc3ccccc3CN2C(=O)CCC(=O)N2CCCOCC2)ccc1Cl [Compound 12-20]	< 50
NCC[C@@H](NC(=O)[C@@H]1Cc2ccccc2CN1C(=O)CCC(=O)c1ccccc1)C(=O)Nc1ccc(Cl)c(Cl)c1F [Compound 14-29]	250 to 500
NCC[C@H](NC(=O)[C@@H]1Cc2ccccc2CN1C(=O)CCC(=O)c1ccccc1)C(=O)Nc1ccc2ncccc2c1 [Compound 2-43]	50 to 250
Cc1c(F)cc(NC(=O)[C@H](CCN)NC(=O)[C@@H]2Cc3ccccc3CN2C(=O)CCC(=O)c2ccccc2)cc1F [Compound 27-5]	< 50
COc1nccc(C[C@H](NC(=O)[C@@H]2Cc3ccccc3CN2C(=O)CCC(=O)c2ccccc2)C(=O)Nc2ccc(Cl)c(C)c2)n1 [Compound 3-11]	250 to 500
NCC[C@H](NC(=O)[C@@H]1Cc2ccccc2CN1C(=O)CCC(=O)c1ccccc1)C(=O)Nc1ccccc1C(F)(F)F [Compound 14-15]	250 to 500
Cc1cc(NC(=O)[C@H](CCN)NC(=O)[C@@H]2Cc3ccccc3CN2C(=O)CCC(=O)N2C(C)CCCC2C)ccc1Cl (stereo partly drawn) [Compound 12-41]	< 50
Cc1cnc(NC(=O)[C@H](CCN)NC(=O)[C@@H]2Cc3ccccc3CN2C(=O)CCC(=O)c2ccccc2)cc1Cl [Compound 27-1, (S)—N—((S)-4-amino-1-((4-chloro-5-methylpyridin-2-yl)amino)-1-oxobutan-2-yl)-2-(4-oxo-4-phenylbutanoyl)-1,2,3,4-tetrahydroisoquinoline-3-carboxamide]	< 50
Cc1cc(NC(=O)[C@H](CCN2CCCCC2)NC(=O)[C@@H]2Cc3ccccc3CN2C(=O)CCC(=O)c2ccccc2)ccc1Cl [Compound 3-9]	< 50
Cc1cc(NC(=O)[C@H](CCN)NC(=O)[C@@H]2Cc3ccccc3CN2C(=O)CCC(=O)N2CCN(C3CC3)CC2)ccc1Cl [Compound 12-33]	50 to 250
Cc1cc(NC(=O)[C@H](CCN)NC(=O)[C@@H]2Cc3ccccc3CN2C(=O)CCC(=O)N2CCC(C(C)(C)C)C2)ccc1Cl (stereo partly drawn) [Compound 12-75]	< 50
NCC[C@H](NC(=O)[C@@H]1Cc2ccccc2CN1C(=O)CCC(=O)N1CCC2CCCCC2C1)C(=O)Nc1ccc2c(c1)CCC2 (stereo partly drawn) [Compound 10-5]	< 50
Cc1cc(NC(=O)[C@H](Cc2cnc(N)nc2)NC(=O)[C@@H]2Cc3ccccc3CN2C(=O)CCC(=O)c2ccccc2)ccc1Cl [Compound 3-14]	250 to 500
Cc1cc(NC(=O)[C@H](CCN)NC(=O)[C@@H]2Cc3ccccc3CN2C(=O)CCC(=O)N2CCC(C)(C)CC2)cc(C)c1Cl [Compound 10-12]	< 50
C[C@H]1CN(C(=O)CCC(=O)N2Cc3ccccc3C[C@H]2C(=O)N[C@@H](CCN)C(=O)Nc2ccc(Cl)c(Cl)c2F)CCN1C [Compound 15-63]	< 50
Cc1c(Cl)ccc(NC(=O)[C@H](CCN)NC(=O)[C@@H]2Cc3ccccc3CN2C(=O)CCC(=O)N2CCCCC2(C)C)c1Cl [Compound 15-52]	< 50
Cc1cc(NC(=O)[C@H](CCN)NC(=O)[C@@H]2Cc3ccccc3CN2C(=O)CCC(=O)NCCC(C)(C)C)ccc1Cl [Compound 12-2]	< 50
O=C(CCC(=O)N1Cc2ccccc2C[C@H]1C(=O)N[C@@H](CCN1CCC(F)(F)C1)C(=O)Nc1ccc(Cl)c(Cl)c1F)c1ccccc1 [Compound 23-4]	50 to 250
Cc1cc(NC(=O)[C@H](CCN)NC(=O)[C@@H]2Cc3ccccc3CN2C(=O)CCC(=O)N2CCC(C(C)C)C2)ccc1Cl (stereo partly drawn) [Compound 12-74]	< 50
NCC[C@H](NC(=O)[C@@H]1Cc2ccccc2CN1C(=O)CCC(=O)c1ccccc1)C(=O)Nc1cc(Cl)ccc1Cl [Compound 14-11]	50 to 250
CC(=O)N1CCN(C(=O)CCC(=O)N2Cc3ccccc3C[C@H]2C(=O)N[C@@H](CCN)C(=O)Nc2ccc(Cl)c(C)c2)CC1 [Compound 12-106]	250 to 500
CCN1CCN(C(=O)CCC(=O)N2Cc3ccccc3C[C@H]2C(=O)N[C@@H](CCN)C(=O)Nc2ccc(Cl)c(C)c2)C(C)(C)C1 [Compound 12-126]	50 to 250
NCC[C@H](NC(=O)[C@@H]1Cc2ccccc2CN1C(=O)CCC(=O)c1ccccc1)C(=O)Nc1cc(Cl)c(F)c(Cl)c1 [Compound 27-2]	250 to 500
